Experimental data taken from ChEMBL document CHEMBL1149956, “Synthesis and biological evaluation of new 5-HPETE analogs” (Bioorg Med Chem Lett, 1994).
Activity calls are given as the source filed them. The calls are words filed in the database; no cut-off is given here.

What was measured:
[1] = target: T1, Polyunsaturated fatty acid 5-lipoxygenase (Homo sapiens) (UniProt P09917); assay: Tested for the inhibition of 5-lipoxygenase from human polymorphonuclear leukocytes(PMN) at 10 uM concentration of the compound; IA= Inactive
T1 sequence (whole entry): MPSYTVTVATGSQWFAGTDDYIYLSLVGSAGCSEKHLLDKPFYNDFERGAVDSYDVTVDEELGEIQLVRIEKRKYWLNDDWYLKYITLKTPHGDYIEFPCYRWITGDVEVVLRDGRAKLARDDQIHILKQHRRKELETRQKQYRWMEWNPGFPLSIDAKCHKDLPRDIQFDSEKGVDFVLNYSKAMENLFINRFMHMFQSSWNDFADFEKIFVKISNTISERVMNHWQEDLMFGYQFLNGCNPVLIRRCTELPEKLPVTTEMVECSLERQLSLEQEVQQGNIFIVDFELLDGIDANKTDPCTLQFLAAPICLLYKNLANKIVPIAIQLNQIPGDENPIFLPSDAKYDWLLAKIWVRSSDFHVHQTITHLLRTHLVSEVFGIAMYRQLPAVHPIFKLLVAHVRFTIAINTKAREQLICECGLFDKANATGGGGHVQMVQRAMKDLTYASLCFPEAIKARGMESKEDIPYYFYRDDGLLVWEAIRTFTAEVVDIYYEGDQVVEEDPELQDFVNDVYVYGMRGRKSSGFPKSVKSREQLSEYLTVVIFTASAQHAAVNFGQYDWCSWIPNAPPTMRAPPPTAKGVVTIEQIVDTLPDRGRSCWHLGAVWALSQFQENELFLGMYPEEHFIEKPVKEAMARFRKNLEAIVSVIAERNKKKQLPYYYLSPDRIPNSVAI

[2] = target: T1, Polyunsaturated fatty acid 5-lipoxygenase (Homo sapiens); assay: Tested for the inhibition of 5-lipoxygenase from human polymorphonuclear leukocytes(PMN) at 10 uM concentration of the compound; value ranges from 70-90

Row | Compound | inhibition [1] | inhibition [2] [%]
1 | CCCCCCCCCCC/C=C\C=C\c1cc(C/C=N/O)no1 | inactive | –
2 | CCCCCCCCCCC/C=C\C=C\c1cc(CC(=O)OC)no1 | – | 70

Continued, values first:

Row | inhibition [1] | inhibition [2] [%] | Compound
3 | inactive | – | CCCCC/C=C\C/C=C\C/C=C\C=C\C1CC(CC(=O)OC)=NO1 (stereo not given)
4 | – | 70 | CCCCCCCCCCC/C=C\C=C\C1CC(CC(=O)OC)=NO1 (stereo not given)
5 | – | 70 | CCCCC/C=C\C/C=C\C/C=C\C=C\c1cc(CC(=O)OC)no1
